According to patent US20080039410A1, “Inositol 1,4,5-Trisphosphate Receptor Mutants and Uses Thereof” (priority 2004, published 2008):
Values joined by “and” are separate entries in the source; they are usually repeats but may differ in a detail not shown here. Equal entries are not always repeated. “Also recorded” adds a separate entry of the source.

What was measured:
S2− InsP3R-1 [1] = experiment: Potentiation of CCh-induced Ca2+ release after PKA activation (forskolin), S2− InsP3R-1 constructs in DT-40 3ko cells; assay type: cell-based, rat; conditions: for effect of forskolin treatment on CCh-induced [Ca^2+]i peak: threshold CCh; for Ca^2+ release after PKA activation: S2 − InsP3R-1 constructs, Table 2
Method: DT-40 cells lacking all three InsP3 receptor subtypes DT-40 3ko were transfected using electroporation, 350 V and 950 μF. 2×10^7 cells were co-transfected with 25 μg of the InsP3R cDNA, 25 μg of the muscarinic type 3 (M3) receptor, and 4 μg of the red fluorescent protein plasmid pHcRed1-N1. Cells were incubated with DNA in 500 μL of Optimem media on ice for 10 minutes. The cell/DNA mixture was electroporated, incubated on ice for 30 minutes, brought up to 5 ml with Optimem and placed in a 5% C02 incubator at 39° C. for 5 hours. The cells were then centrifuged and resuspended in 12 ml of complete RPMI media. Transfection efficiency was typically ˜20%. Experiments were performed within 32 hours of transfection.
Transfected DT-40 3ko cells were washed once in a HEPES-buffered physiological saline solution (HEPES-PSS) containing (in mM) 5.5 glucose, 137 NaCl, 0.56 MgCl2, 4.7 KCl, 1 Na2HPO4, 10 HEPES (pH 7.4), 1.2 CaCl2 and 1% w/v Bovine Serum Albumin. Cells were then resuspended in BSA HEPES-PSS with 1 μM Fura-2 (AM), placed on a 15 mm glass coverslip in a low volume perfusion chamber (Warner Instruments) and allowed to adhere for 30 minutes at room temperature. Cells were perfused continually for 10 minutes with HEPES-PSS before experimentation to allow Fura-2 de-esterification. A field of cells for each experiment was chosen that contained a wide range of transfection efficiency based upon the intensity of red fluorescence emitted when excited at 560 nm. [Ca^2+]i imaging was performed essentially as previously described using an inverted epifluorescence Nikon microscope with a 40× oil immersion objective lens (numerical aperture, 1.3). Cells were excited alternately with light at 340 and 380 nm (±10 mn bandpass filters, Chroma) using a monochrometer (TILL Photonics). Fluorescence images were captured and digitized with a digital camera driven by TILL Photonics software. Images were captured every 2 seconds with an exposure of 35 ms and no binning. 340/380 ratio images were calculated online and stored immediately to hard disk.
The effects of treatment were determined by normalizing the peak change in fluorescence ratio by stimulation following forskolin or 8-Br cGMP exposure to that of stimulation in control HEPES-PSS. Thus, pooled data represents a normalized fold increase over control for the treated trial. Two tailed heteroscedastic t-tests with P values<0.05 were considered to have statistical significance.
Similar experimental paradigms were employed to assess the effect of PKA-induced phosphorylation on a homogeneous population of S2^− InsP3R-1.
The effects of treatment were determined by normalizing the peak change in fluorescence ratio by stimulation following forskolin or 8-Br-cGMP exposure to that of stimulation in control HEPES-PSS. Thus, pooled data represent a normalized fold increase over control for the treated trial. In all cases where statistical significance is indicated, two-tailed heteroscedastic t tests were performed. P values<0.05 were considered to indicate statistical significance and are denoted by an asterisk in the figures.
The enhanced apparent sensitivity of individual phosphomimetic mutants was essentially equal and intermediate between the sensitivity of the S2−WT and S2−EE mutations. […] To address this possibility directly, experiments were performed evaluating the effects of activating endogenous PKA in cells expressing S2−SE or S2−ES to mimic prior phosphorylation of an individual site. […] To test this, experiments were performed to determine the phosphorylation state of the various mutants after raising cAMP levels. These experiments were performed in HEK-293 cells because of the high transfection efficiency and low endogenous levels of InsP3R-1 (47, 99). […]

S2− InsP3R-1 [2] = experiment: Phosphorylation of Ser-1755 after forskolin in transfected HEK-293 cells (immunoprecipitation, Western blot); assay type: cell-based, rat; conditions: 20 μM forskolin 10 min, α-phospho-Ser-1755 blot
Method: HEK-293 cells were plated onto 25-cm^2 culture flasks and allowed to grow to near-confluency. Cells were transfected with 5 μg of each S2− InsP3R-1 DNA construct by using the LipofectAMINE reagent (Invitrogen) as per the manufacturer's instructions. The following day, batches of cells were treated in the presence or absence of 20 μM forskolin for 10 min, aspirated from flasks, lysed, and immunoprecipitated with a polyclonal α-InsP3R-1 antibody that recognizes amino acids 2731-2749 of InsP3R-1. Immunoprecipitates were separated on 5% SDS gels transferred to nitrocellulose and then probed with either the α-InsP3R-1 antibody or a polyclonal antibody that recognizes the phosphorylated state of Ser-1755 (39) (α-phospho-Ser-1755), kindly provided by Dr. S. Snyder. Blots that were probed with a-phospho-Ser-1755were stripped and reprobed with the α-InsP3R-1 antisera to confirm the presence and relative quantity of the InsP3R-1.
The enhanced apparent sensitivity of individual phosphomimetic mutants was essentially equal and intermediate between the sensitivity of the S2−WT and S2−EE mutations. […] To address this possibility directly, experiments were performed evaluating the effects of activating endogenous PKA in cells expressing S2−SE or S2−ES to mimic prior phosphorylation of an individual site. […] To test this, experiments were performed to determine the phosphorylation state of the various mutants after raising cAMP levels. These experiments were performed in HEK-293 cells because of the high transfection efficiency and low endogenous levels of InsP3R-1 (47, 99). […] Following incubation of the lysates with α-InsP3R-1 antibody, the immune complexes were captured and separated on SDS gels, and the phosphorylation status of Ser-1755 was determined by Western blotting with an antibody that specifically recognizes this phosphorylated residue in InsP3R-1 (39).

Which “effect of forskolin treatment on CCh-induced [Ca^2+]i peak” value (from here on “effect of forskolin treatment”) (S2− InsP3R-1 [1]; 20 μM forskolin) does the source give for “G1690A: InsP3R-1 S2− variant with glycine to alanine substitution at position 1690 (nucleotide binding site mutant)” here?
Its value is “strikingly absent; also recorded: fails to potentiate”.

What about the “phosphorylation of Ser-1755 after forskolin” value (from here on “phosphorylation”) (S2− InsP3R-1 [2]) of the same substance?
The value was “not susceptible to phosphorylation; also recorded: not phosphorylated”.

Which “effect of forskolin treatment” value (S2− InsP3R-1 [1]; 20 μM forskolin) does the source give for “S2−EE: phosphomimetic S1589E/S1755E mutant of the short splice variant” here?
The value was “no potentiation”.

And the “Ca^2+ release after PKA activation” value (S2− InsP3R-1 [1])?
Its value is “No change/NT”.

What about the “phosphorylation” value (S2− InsP3R-1 [2]) of the same substance?
Its value is “no phosphorylation”.

Which “effect of forskolin treatment” value (S2− InsP3R-1 [1]; 20 μM forskolin) does the source give for “S2−ES: phosphomimetic short splice variant S1589E” here?
The value was “no potentiation”.

What about the “Ca^2+ release after PKA activation” value (S2− InsP3R-1 [1]) of the same substance?
The value was “No change/NT”.

What about the “phosphorylation” value (S2− InsP3R-1 [2]) of the same substance?
The value was “no phosphorylation; also recorded: lack of phosphorylation”.

“S2−SE: phosphomimetic short splice variant of S1755E” was tested. Which “effect of forskolin treatment” value (S2− InsP3R-1 [1]; 20 μM forskolin) did it give?
Its value is “no potentiation”.

What about the “Ca^2+ release after PKA activation” value (S2− InsP3R-1 [1]) of the same substance?
Its value is “No change/NT”.

And the “phosphorylation” value (S2− InsP3R-1 [2])?
The value was “no phosphorylation”.

With “S2−WT: wild-type rat type-1 InsP3 receptor, peripheral short S2− splice variant (SEQ ID NO: 17)” as the substance, how does the “effect on subsequent CCh-induced Ca^2+ release” value (S2− InsP3R-1 [1]; 100 nM, 500 nM or 1 μM forskolin) read?
Its value is “failed to enhance”.

And the “fold potentiation of Ca^2+ release” value (S2− InsP3R-1 [1]; 5 μM forskolin (threshold concentration))?
The value was 1.26±0.21 fold.

What about the “fold increase in CCh-induced Ca^2+ release in the presence of forskolin” value (S2− InsP3R-1 [1]; 20 μM forskolin, Fura-2, listed as wild-type S2^− InsP3R-1) of the same substance?
The value was ~3 fold and ~4 fold.

What about the “effect of forskolin treatment” value (S2− InsP3R-1 [1]; 20 μM forskolin) of the same substance?
The value was “dramatic potentiation; also recorded: markedly potentiated”.

What about the “effect of forskolin treatment” value (S2− InsP3R-1 [1]; 20 μM forskolin, listed as S2^− InsP3R-1) of the same substance?
Its value is “potentiated Ca^2+ release”.

What about the “effect of forskolin treatment” value (S2− InsP3R-1 [1]; 20 μM forskolin, listed as wild type S2^− InsP3R-1) of the same substance?
The value was “enhanced CCh stimulated Ca^2+ release”.

What about the “effect of forskolin treatment” value (S2− InsP3R-1 [1]; 20 μM forskolin, listed as wild-type S2^− InsP3R-1) of the same substance?
Its value is “marked potentiation”.

And the “Ca^2+ release after PKA activation” value (S2− InsP3R-1 [1])?
The value was “Enhanced”.

And the “phosphorylation” value (S2− InsP3R-1 [2]; listed as S2−InsP3R-1)?
The value was “results in phosphorylation”.

And the “phosphorylation” value (S2− InsP3R-1 [2]; listed as wild type S2^−InsP3R-1)?
The value was “robustly phosphorylated”.
